Experimental data: paper PMC4360222 (International Journal of Neuropsychopharmacology, 2015)
Read-outs that look alike come from different tables or passages of the source.

Legend:
D2 receptors = conditions: ref Clark et al., 1985; Burris et al., 2002; Tadori et al., 2005; cited from earlier work
[1] = biological target: T1, D2-like autoreceptors (rat brain striatal minces, [3H]-DA synthesis) (Rattus norvegicus, UniProt P61169); assay: cell-based
[2] = biological target: T1, D2-like autoreceptors (rat brain striatal minces, [3H]-DA synthesis)

T1 sequence (P61169 1-415 isoform P61169-2): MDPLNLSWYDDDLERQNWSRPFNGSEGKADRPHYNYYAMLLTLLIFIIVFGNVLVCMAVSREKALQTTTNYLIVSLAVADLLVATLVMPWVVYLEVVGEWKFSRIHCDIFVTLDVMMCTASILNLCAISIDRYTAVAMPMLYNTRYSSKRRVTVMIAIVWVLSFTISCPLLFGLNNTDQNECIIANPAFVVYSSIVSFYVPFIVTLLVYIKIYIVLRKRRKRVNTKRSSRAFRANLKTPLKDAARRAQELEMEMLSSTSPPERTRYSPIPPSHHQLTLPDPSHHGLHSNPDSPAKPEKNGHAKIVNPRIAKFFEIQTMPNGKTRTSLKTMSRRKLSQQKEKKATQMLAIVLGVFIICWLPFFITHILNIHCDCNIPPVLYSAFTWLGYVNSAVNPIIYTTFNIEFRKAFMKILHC

Row | blockade of QUIN decrease of DA synthesis by antagonist ([2]; 2mM K+, data not shown) | reversal of decrease in DA synthesis elicited by 1nM S-(-)-PPP ([2]; sulpiride 100nM) | blockade of effect of ARI 1 µM on DA synthesis ([2]; sulpiride 1 µM, 2mM K+) | blockade of inhibitory effect of ARI 10nM on DA synthesis ([2]; sulpiride 1 µM, 2mM K+) | SMILES | reported affinity for D2 receptors (D2 receptors) | Emax ([1]; read-out: Emax, inhibition of [3H]-dopamine synthesis, basal 2mM K+) [%] | Emax ([1]; read-out: Emax, inhibition of [3H]-dopamine synthesis, stimulated 15mM K+) [%] | Emax ([1]; read-out: maximal effect on DA synthesis, 2mM K+) [%] | Emax ([1]; read-out: maximal effect on DA synthesis, 15mM K+) [%]
1 |  |  |  |  | CCCN1CCC[C@@H](c2cccc(O)c2)C1 [Preclamol (S-(-)-PPP), (-)-3-(3-hydroxyphenyl)-N-n-propylpiperidine] | high-nanomolar/low-micromolar range | 34 | 31 | -34 | -31
2 | totally blocked | completely reversed | partially blocked | fully eliminated | CCN1CCC[C@H]1CNC(=O)c1cc(S(N)(=O)=O)ccc1OC [sulpiride, (S)-(-)-sulpiride] |  |  |  |  | 
